{"source": "patent US20250163104A1", "about": "“MACROCYCLIC IMMUNOMODULATORS” (priority 2021, published 2025)", "note": "Where a SMILES comes first, the peptide text is derived from it. Bridges are numbered along the chain shown (N, C = ends). [ ]: non-standard residue; d: D form. The star is where a group is joined. Phe(4-COOH) = N[C@@H](Cc1ccc(C(=O)O)cc1)C(=O)O; Bip = N[C@@H](Cc1ccc(-c2ccccc2)cc1)C(=O)O; Phe(3-OMe) = COc1cccc(C[C@H](N)C(=O)O)c1; Phe(3-Me) = Cc1cccc(C[C@H](N)C(=O)O)c1; 4Pal = N[C@@H](Cc1ccncc1)C(=O)O; Cha = N[C@@H](CC1CCCCC1)C(=O)O; Cit = NC(=O)NCCC[C@H](N)C(=O)O; Carboxymethyl = O=C(O)C*; Nle = CCCC[C@H](N)C(=O)O; Orn = NCCC[C@H](N)C(=O)O; Dab = NCC[C@H](N)C(=O)O; Dap = NC[C@H](N)C(=O)O"}
{"target": "T1, human PD-1 / PD-L1-Ig binding on Jurkat cell line over-expressing human PD-1 (Jurkat-PD-1) (Homo sapiens, UniProt Q15116)", "T1 construct": "expressed in transfected cells; host or cells: Jurkat", "T1 sequence (Q15116 25-288)": "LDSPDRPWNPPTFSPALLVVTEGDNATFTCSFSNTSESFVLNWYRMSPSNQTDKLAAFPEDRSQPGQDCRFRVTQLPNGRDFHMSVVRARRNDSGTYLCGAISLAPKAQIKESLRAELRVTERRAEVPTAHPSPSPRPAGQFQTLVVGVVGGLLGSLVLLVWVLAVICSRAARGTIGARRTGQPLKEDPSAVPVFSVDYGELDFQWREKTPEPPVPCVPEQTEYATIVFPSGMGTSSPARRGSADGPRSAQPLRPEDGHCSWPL", "test": "Jurkat-PD-1 Cell Binding High-Content Screening Assay (CBA)", "assay_type": "cell-based", "conditions": "Jurkat-PD-1 cells, PE-labeled PD-L1-Ig 20 nM final; read-out: Jurkat HPD1_PDL1 IC50", "how_it_was_run": "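Compounds were preincubated with Jurkat-hPD-1 cells in DMEM plus 10% fetal calf serum for 2 h at 37° C. Phycoerythrin-labeled PD-L1-Ig (20 nM final) was then added for 1 hour. Cells were fixed in 4% paraformaldehyde with Hoechst 33342, and bound fluorescence was quantified by high-content imaging.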", "units": {"IC50": "nM"}}
{"smiles": "CCCC[C@@H]1NC(=O)[C@H](CCN)NC(=O)[C@@H](CC(C)C)NC(=O)[C@H](CCCN)NC(=O)[C@H](CCCNC(N)=O)NC(=O)[C@H](Cc2ccc(-c3ccccc3)cc2)NC(=O)[C@H](C(C)C)NC(=O)[C@H](Cc2c[nH]c3ccccc23)NC(=O)[C@H](CC(=O)O)NC(=O)[C@H](Cc2ccc(O)cc2)NC(=O)[C@H](CC(N)=O)NC(=O)CSC[C@@H](C(=O)N[C@@H](C)C(N)=O)NC(=O)[C@H]([C@@H](C)O)NC(=O)[C@H](C(C)C)NC1=O", "note": "[Compound 1162] ({CH2CO}-NYDWV[Bip][Cit][Orn][dL][Dab][Nle]VTCA-NH2; thioether N-14)", "IC50": 327}
{"smiles": "CC[C@H](C)[C@@H]1NC(=O)[C@H](Cc2ccc(-c3ccccc3)cc2)NC(=O)[C@H](C(C)C)NC(=O)[C@H](Cc2c[nH]c3ccccc23)NC(=O)[C@H](CC(=O)O)NC(=O)[C@H](Cc2ccc(O)cc2)NC(=O)[C@H](CC(N)=O)NC(=O)CSC[C@@H](C(=O)N[C@@H](C)C(N)=O)NC(=O)[C@H]([C@@H](C)O)NC(=O)[C@H](C(C)C)NC(=O)[C@H](CC2CCCCC2)NC(=O)[C@H](CCN)NC(=O)[C@@H](CC(C)C)NC(=O)[C@H](CCCN)NC1=O", "note": "[Compound 1163] ({CH2CO}-NYDWV[Bip]I[Orn][dL][Dab][Cha]VTCA-NH2; thioether N-14)", "IC50": 26.1}
{"smiles": "CC(C)C[C@H]1NC(=O)[C@H](CCCN)NC(=O)[C@H](CCCNC(N)=O)NC(=O)[C@H](Cc2ccc(-c3ccccc3)cc2)NC(=O)[C@H](C(C)C)NC(=O)[C@H](Cc2c[nH]c3ccccc23)NC(=O)[C@H](CC(=O)O)NC(=O)[C@H](Cc2ccc(O)cc2)NC(=O)[C@H](Cc2ccc(OCC(=O)O)cc2)NC(=O)CSC[C@@H](C(=O)N[C@@H](C)C(N)=O)NC(=O)[C@H]([C@@H](C)O)NC(=O)[C@H](C(C)C)NC(=O)[C@H](CC2CCCCC2)NC(=O)[C@H](CCN)NC1=O", "note": "[Compound 1165]", "IC50": 14.6}
{"smiles": "CCCC[C@@H]1NC(=O)[C@H](CCN)NC(=O)[C@@H](CC(C)C)NC(=O)[C@H](CCCN)NC(=O)[C@H](CCCNC(N)=O)NC(=O)[C@H](Cc2ccc(-c3ccccc3)cc2)NC(=O)[C@H](C(C)C)NC(=O)[C@H](Cc2c[nH]c3ccccc23)NC(=O)[C@H](CC(=O)O)NC(=O)[C@H](Cc2ccc(O)cc2)NC(=O)[C@H](Cc2ccc(OCC(=O)O)cc2)NC(=O)CSC[C@@H](C(=O)N[C@@H](C)C(N)=O)NC(=O)[C@H]([C@@H](C)O)NC(=O)[C@H](C(C)C)NC1=O", "note": "[Compound 1166] ({CH2CO}-Y(Carboxymethyl)YDWV[Bip][Cit][Orn][dL][Dab][Nle]VTCA-NH2; thioether N-14)", "IC50": 58.3}
{"smiles": "CC[C@H](C)[C@@H]1NC(=O)[C@H](Cc2ccc(-c3ccccc3)cc2)NC(=O)[C@H](C(C)C)NC(=O)[C@H](Cc2c[nH]c3ccccc23)NC(=O)[C@H](CC(=O)O)NC(=O)[C@H](Cc2ccc(O)cc2)NC(=O)[C@H](Cc2ccc(OCC(=O)O)cc2)NC(=O)CSC[C@@H](C(=O)N[C@@H](C)C(N)=O)NC(=O)[C@H]([C@@H](C)O)NC(=O)[C@H](C(C)C)NC(=O)[C@H](CC2CCCCC2)NC(=O)[C@H](CCN)NC(=O)[C@@H](CC(C)C)NC(=O)[C@H](CCCN)NC1=O", "note": "[Compound 1167]", "IC50": 17}
{"smiles": "CCCC[C@@H]1NC(=O)[C@H](CCN)NC(=O)[C@@H](CC(C)C)NC(=O)[C@H](CCCN)NC(=O)[C@H]([C@@H](C)CC)NC(=O)[C@H](Cc2ccc(-c3ccccc3)cc2)NC(=O)[C@H](C(C)C)NC(=O)[C@H](Cc2c[nH]c3ccccc23)NC(=O)[C@H](CC(=O)O)NC(=O)[C@H](Cc2ccc(O)cc2)NC(=O)[C@H](Cc2ccc(OCC(=O)O)cc2)NC(=O)CSC[C@@H](C(=O)N[C@@H](C)C(N)=O)NC(=O)[C@H]([C@@H](C)O)NC(=O)[C@H](C(C)C)NC1=O", "note": "[Compound 1168] ({CH2CO}-Y(Carboxymethyl)YDWV[Bip]I[Orn][dL][Dab][Nle]VTCA-NH2; thioether N-14)", "IC50": 26.3}
{"smiles": "CCCC[C@@H]1NC(=O)[C@H](CCN)NC(=O)[C@@H](CC(C)C)NC(=O)[C@H](CCCN)NC(=O)[C@H](C(C)C)NC(=O)[C@H](Cc2ccc(-c3ccccc3)cc2)NC(=O)[C@H](C(C)C)NC(=O)[C@H](Cc2c[nH]c3ccccc23)NC(=O)[C@H](CC(=O)O)NC(=O)[C@H](Cc2ccc(O)cc2)NC(=O)[C@H](CN)NC(=O)CSC[C@@H](C(=O)N[C@@H](C)C(N)=O)NC(=O)[C@H]([C@@H](C)O)NC(=O)[C@H](C(C)C)NC1=O", "note": "[Compound 1169] ({CH2CO}-[Dap]YDWV[Bip]V[Orn][dL][Dab][Nle]VTCA-NH2; thioether N-14)", "IC50": 20.7}
{"smiles": "CCCC[C@@H]1NC(=O)[C@H](CCN)NC(=O)[C@@H](CC(C)C)NC(=O)[C@H](CCCN)NC(=O)[C@H](C(C)C)NC(=O)[C@H](Cc2ccc(-c3ccccc3)cc2)NC(=O)[C@H](C(C)C)NC(=O)[C@H](Cc2c[nH]c3ccccc23)NC(=O)[C@H](CC(=O)O)NC(=O)[C@H](Cc2ccc(O)cc2)NC(=O)[C@H](Cc2ccc(OCC(=O)O)cc2)NC(=O)CSC[C@@H](C(=O)N[C@@H](C)C(N)=O)NC(=O)[C@H]([C@@H](C)O)NC(=O)[C@H](C(C)C)NC1=O", "note": "[Compound 1170] ({CH2CO}-Y(Carboxymethyl)YDWV[Bip]V[Orn][dL][Dab][Nle]VTCA-NH2; thioether N-14)", "IC50": 10.8}
{"smiles": "CCCC[C@@H]1NC(=O)[C@H](CCN)NC(=O)[C@@H](CC(C)C)NC(=O)[C@H](CCCN)NC(=O)[C@H](C(C)C)NC(=O)[C@H](Cc2ccc(-c3ccccc3)cc2)NC(=O)[C@H](C(C)C)NC(=O)[C@H](Cc2c[nH]c3ccccc23)NC(=O)[C@H](CC(=O)O)NC(=O)[C@H](Cc2ccc(O)cc2)NC(=O)[C@H](CC(N)=O)NC(=O)CSC[C@@H](C(=O)N[C@@H](C)C(N)=O)NC(=O)[C@H]([C@@H](C)O)NC(=O)[C@H](C(C)C)NC1=O", "note": "[Compound 1171] ({CH2CO}-NYDWV[Bip]V[Orn][dL][Dab][Nle]VTCA-NH2; thioether N-14)", "IC50": 26.4}
{"smiles": "CC(C)C[C@H]1NC(=O)[C@H](CCCN)NC(=O)[C@H](C(C)C)NC(=O)[C@H](Cc2ccc(-c3ccccc3)cc2)NC(=O)[C@H](C(C)C)NC(=O)[C@H](Cc2c[nH]c3ccccc23)NC(=O)[C@H](CC(=O)O)NC(=O)[C@H](Cc2ccc(O)cc2)NC(=O)[C@H](CN)NC(=O)CSC[C@@H](C(=O)N[C@@H](C)C(N)=O)NC(=O)[C@H]([C@@H](C)O)NC(=O)[C@H](C(C)C)NC(=O)[C@H](CC2CCCCC2)NC(=O)[C@H](CCN)NC1=O", "note": "[Compound 1172]", "IC50": 6.4}
{"smiles": "CC(C)C[C@H]1NC(=O)[C@H](CCCN)NC(=O)[C@H](C(C)C)NC(=O)[C@H](Cc2ccc(-c3ccccc3)cc2)NC(=O)[C@H](C(C)C)NC(=O)[C@H](Cc2c[nH]c3ccccc23)NC(=O)[C@H](CC(=O)O)NC(=O)[C@H](Cc2ccc(O)cc2)NC(=O)[C@H](Cc2ccc(OCC(=O)O)cc2)NC(=O)CSC[C@@H](C(=O)N[C@@H](C)C(N)=O)NC(=O)[C@H]([C@@H](C)O)NC(=O)[C@H](C(C)C)NC(=O)[C@H](CC2CCCCC2)NC(=O)[C@H](CCN)NC1=O", "note": "[Compound 1173]", "IC50": 9.7}
{"smiles": "CCCC[C@@H]1NC(=O)[C@H](CCCNC(=N)N)NC(=O)[C@@H](CC(C)C)NC(=O)[C@H](CCCN)NC(=O)[C@H](CCCNC(N)=O)NC(=O)[C@H](Cc2ccc(-c3ccccc3)cc2)NC(=O)[C@H](C(C)C)NC(=O)[C@H](Cc2c[nH]c3ccccc23)NC(=O)[C@H](CC(=O)O)NC(=O)[C@H](Cc2ccc(O)cc2)NC(=O)[C@H](CN)NC(=O)CSC[C@@H](C(=O)N[C@@H](C)C(N)=O)NC(=O)[C@H]([C@@H](C)O)NC(=O)[C@H](C(C)C)NC1=O", "note": "[Compound 1175] ({CH2CO}-[Dap]YDWV[Bip][Cit][Orn][dL]R[Nle]VTCA-NH2; thioether N-14)", "IC50": 82}
{"smiles": "CCCC[C@@H]1NC(=O)[C@H](CCCNC(=N)N)NC(=O)[C@@H](CC(C)C)NC(=O)[C@H](CCCN)NC(=O)[C@H](CCCNC(N)=O)NC(=O)[C@H](Cc2ccc(-c3ccccc3)cc2)NC(=O)[C@H](C(C)C)NC(=O)[C@H](Cc2c[nH]c3ccccc23)NC(=O)[C@H](CC(=O)O)NC(=O)[C@H](Cc2ccc(O)cc2)NC(=O)[C@H](Cc2ccc(OCC(=O)O)cc2)NC(=O)CSC[C@@H](C(=O)N[C@@H](C)C(N)=O)NC(=O)[C@H]([C@@H](C)O)NC(=O)[C@H](C(C)C)NC1=O", "note": "[Compound 1176] ({CH2CO}-Y(Carboxymethyl)YDWV[Bip][Cit][Orn][dL]R[Nle]VTCA-NH2; thioether N-14)", "IC50": 75.7}
{"smiles": "CCCC[C@@H]1NC(=O)[C@H](CCCNC(=N)N)NC(=O)[C@@H](CC(C)C)NC(=O)[C@H](CCCN)NC(=O)[C@H](CCCNC(N)=O)NC(=O)[C@H](Cc2ccc(-c3ccccc3)cc2)NC(=O)[C@H](C(C)C)NC(=O)[C@H](Cc2c[nH]c3ccccc23)NC(=O)[C@H](CC(=O)O)NC(=O)[C@H](Cc2ccc(O)cc2)NC(=O)[C@H](CC(N)=O)NC(=O)CSC[C@@H](C(=O)N[C@@H](C)C(N)=O)NC(=O)[C@H]([C@@H](C)O)NC(=O)[C@H](C(C)C)NC1=O", "note": "[Compound 1177] ({CH2CO}-NYDWV[Bip][Cit][Orn][dL]R[Nle]VTCA-NH2; thioether N-14)", "IC50": 78.9}
{"smiles": "Cc1cccc(C[C@@H]2NC(=O)[C@H](CC(=O)O)NC(=O)[C@H](Cc3ccc(C(=O)O)cc3)NC(=O)[C@H](Cc3ccncc3)NC(=O)CSC[C@@H](C(=O)N[C@@H](C)C(N)=O)NC(=O)[C@H]([C@@H](C)O)NC(=O)[C@H](C(C)C)NC(=O)[C@H](CC(C)C)NC(=O)[C@H](CCN)NC(=O)[C@@H](CC(C)C)NC(=O)[C@H](CCCN)NC(=O)[C@H](CCCNC(N)=O)NC(=O)[C@H](Cc3ccc(-c4ccccc4)cc3)NC(=O)[C@H](C(C)C)NC2=O)c1", "note": "[Compound 1178] ({CH2CO}-[4Pal][Phe(4-COOH)]D[Phe(3-Me)]V[Bip][Cit][Orn][dL][Dab]LVTCA-NH2; thioether N-14)", "IC50": 4.1}
{"smiles": "COc1cccc(C[C@@H]2NC(=O)[C@H](CC(=O)O)NC(=O)[C@H](Cc3ccc(C(=O)O)cc3)NC(=O)[C@H](Cc3ccncc3)NC(=O)CSC[C@@H](C(=O)N[C@@H](C)C(N)=O)NC(=O)[C@H]([C@@H](C)O)NC(=O)[C@H](C(C)C)NC(=O)[C@H](CC(C)C)NC(=O)[C@H](CCN)NC(=O)[C@@H](CC(C)C)NC(=O)[C@H](CCCN)NC(=O)[C@H](CCCNC(N)=O)NC(=O)[C@H](Cc3ccc(-c4ccccc4)cc3)NC(=O)[C@H](C(C)C)NC2=O)c1", "note": "[Compound 1179] ({CH2CO}-[4Pal][Phe(4-COOH)]D[Phe(3-OMe)]V[Bip][Cit][Orn][dL][Dab]LVTCA-NH2; thioether N-14)", "IC50": 5.8}
